Source: patent publication US20040072753A1, “Peptides for use in the treatment of alzheimer's disease” (priority 2000, published 2004)
Each block holds one molecule with its values, some of them ahead of it. Where a SMILES comes first, the peptide text is derived from it. Where no end group is shown, it is not given here. [ ]: non-standard residue; d: D form. pS = N[C@@H](COP(=O)(O)O)C(=O)O

Legend:
[1] = biological target: T1, recombinant p34-cdc2/cyclin B1 (Homo sapiens, UniProt P06493); experiment: Phosphorylation of biotinylated Aβ peptides by recombinant p34-cdc2/cyclin B1 (32P incorporation); assay type: biochemical; conditions: for phosphorylation by cdc2 (incorporation of 32P from γ32P-ATP): 25 μM biotinylated peptide, 10 min at 30° C.
T1 construct: purchased Promega, UK
T1 sequence (P06493 whole entry): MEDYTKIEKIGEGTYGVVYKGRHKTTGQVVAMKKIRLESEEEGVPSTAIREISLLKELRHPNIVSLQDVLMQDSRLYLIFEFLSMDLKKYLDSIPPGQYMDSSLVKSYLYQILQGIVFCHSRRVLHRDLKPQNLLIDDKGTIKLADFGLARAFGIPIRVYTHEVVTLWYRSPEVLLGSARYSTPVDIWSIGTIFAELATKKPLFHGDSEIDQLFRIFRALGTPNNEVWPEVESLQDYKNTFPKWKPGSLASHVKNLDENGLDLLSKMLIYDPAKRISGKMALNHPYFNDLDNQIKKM
T1 sequence (P14635 whole entry partner): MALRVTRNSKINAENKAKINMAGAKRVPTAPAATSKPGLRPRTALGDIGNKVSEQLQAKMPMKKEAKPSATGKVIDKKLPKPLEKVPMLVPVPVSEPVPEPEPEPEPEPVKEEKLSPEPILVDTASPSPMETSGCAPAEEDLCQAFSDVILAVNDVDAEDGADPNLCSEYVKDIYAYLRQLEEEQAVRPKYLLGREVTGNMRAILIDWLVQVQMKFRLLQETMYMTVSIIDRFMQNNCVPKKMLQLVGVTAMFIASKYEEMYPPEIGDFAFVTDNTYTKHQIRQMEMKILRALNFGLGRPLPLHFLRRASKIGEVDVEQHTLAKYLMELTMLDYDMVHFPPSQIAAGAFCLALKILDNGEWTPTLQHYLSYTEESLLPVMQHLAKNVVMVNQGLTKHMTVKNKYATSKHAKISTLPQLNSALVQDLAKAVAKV
From the text: (§1) The membrane was washed four times in 2 M NaCl, followed by four times in 2 M NaCl containing 1% (v/v) H3PO4 and finally twice in deionized H2O to remove unbound material.

recombinant human cdc2 = recombinant human cdc2 (Homo sapiens, UniProt P06493); experiment: Binding of biotinylated Aβ peptides to recombinant human cdc2 coated plates (ELISA); conditions: for binding to human cdc2: biotinylated peptide 200 pM, 37° C. 4 hours
Sequence of recombinant human cdc2 (P06493 whole entry): as the sequence (P06493 whole entry) above
Protocol: After washing to remove unbound material, an alkaline phosphatase polymer-streptavidin conjugate (Sigma, Dorset, UK) was added and incubated at 37° C. for 2 hours.

[2] = tested on: SP2/0-Ag-14 mouse myeloma cells; experiment: Cytotoxicity of Aβ peptides, trypan blue dye exclusion; assay type: cell-based; conditions: test peptides 20 μM, 24 hours
Protocol: SP2/0-Ag-14 mouse myeloma cells were maintained in RPMI 1640 medium containing 10% fetal calf serum at 37° C. in a 5% CO2 humidified atmosphere. For cytotoxicity experiments 2×1 05 cells were plated in 24 well dishes in 1 ml PBS containing 0.1% BSA and test peptides (20 μM) for 24 hours. Cell viability was determined by trypan blue dye exclusion with at least 100 cells counted per well (Milton, Biochem. J. 344: 293-296 (1999)).

Human NT-2 neurons [3] = experiment: Cytotoxicity assay, MTT reduction in human NT-2 neurons; assay type: cell-based; conditions: for effect on MTT utilisation: 24 h incubation
Protocol: In order to assess the effects of Aβ phosphorylation on the cytotoxic properties of Aβ peptides, a series of Aβ 17-35 derivatives were synthesised. The 17-35 region of Aβ contains the serine residue (serine 26) which is proposed to be phosphorylated by p34-cdc2, and also contains the ERAB binding (17-20) and cytotoxic domains (31-35) thought to play roles in Aβ cytotoxicity. The peptides were tested in a cytotoxicity assay as follows. Human NT-2 (NTera2/D1) precursor cells were propagated in DMEM/F12 medium supplemented with retinoic acid for 5-6 weeks prior to harvesting and replating in the presence of mitotic inhibitors, to generate post-mitotic Human NT-2 neurons. For cytotoxicity experiments, 5×10^3 cells/100 μl, medium were plated in Poly-D-lysine coated 96 well plates. Test peptides (20 μM) were added directly to culture medium prior to incubation for 24 h. Cell viability was determined by measurement of MTT (3-(4,5-dimethylthiazol-2-yl)-2,5-diphenyl tetrazolium bromide) reduction (Shearman, Methods Enzymol. 309: 716-723 (1999)). After incubation with peptides MTT (10 μl: 12 mM stock) was added and cells incubated for a further 4 hours. Cell lysis buffer [100 μl/well; 20% (v/v) SDS, 50% (v/v) N,N-dimethylformamide, pH 4.7] was added and, after repeated pipetting to lyse cells, calorimetric determination of MTT formazan product formation was determined by measuring the absorbance change at 540 nm. Control levels in the absence of peptide were taken as 100%, with the absorbance in the absence of cells taken as 0%.

Human NT-2 neurons [4] = experiment: Immunoassay of ir-pSAβ and ir-Aβ in extracts of NT-2 neurons exposed to Aβ 17-35 derivatives; assay type: cell-based; conditions: for levels of immunoreactive Aβ (ir-Aβ) in exposed cells: cell extracts; for ir-pSAβ in extracts of exposed cells: versus control cells
Protocol: To establish whether Aβ is phosphorylated in the Alzheimer's brain, Alzheimer disease brain sections were obtained from Novagen Inc (Madison, Wis., USA. Cat No: 70298-3; Lot No: A301036). Sections were deparaffinised and extracted in DEA buffer supplemented with 0.1 mM sodium vanadate. Extracts from NT-2 neurons were also prepared using the same buffer. Using a polyclonal anti-AB 15-30 antiserum plus Protein-A agarose, the Aβ was immunoprecipitated. The resultant extracts were further purified using a Sep-Pak C18 extraction step. Columns were pre-wetted with methanol and 0.5M acetic acid and the samples were applied in 20% acetonitrile in 0.1% TFA. […] After drying under a stream of nitrogen, samples were resuspended in appropriate buffer. For SDS-PAGE analysis, samples were resuspended in gel loading buffer and run on a 15% acrylamide gel. After immunoblotting onto nitrocellulose membranes, the blots were stained with anti-Aβ, anti-phosphoserine, anti-phosphotyrosine or anti-phosphothreonine antibodies. Bands were visualized with anti-mouse or anti-rabbit IgG-HRP conjugates and TMB membrane substrate. […] ELISA plates were coated with anti-phosphoserine antiserum for pSAβ determination and blocked with 5% dried milk. Samples or synthetic Aβ standards (Aβ 17-35 pS) were applied in PBS containing 0.1% BSA plus 0.05% Tween 20. Monoclonal antibody ALI-01 was added and incubated for 2 hrs. After washing to remove unbound material, ir-pSAβ was detected using an anti-rabbit IgG-HRP conjugate and TMB substrate. A similar assay in which the pS antibody was replaced with a polyclonal anti-Aβ antibody was used to measure Aβ levels.

cdc2/cyclin B1 = biological target: T2, cdc2/cyclin B1 (Homo sapiens, UniProt P06493+P14635); experiment: cdc2/cyclin B1 phosphorylation of biotinylated histone H1 substrate peptide; assay type: biochemical
T2 construct: purchased Promega, UK
T2 sequence (P06493 whole entry): as above
T2 sequence (P14635 whole entry): as the sequence (P14635 whole entry partner) above
From the text: as §1
Since Aβ binds to both the cdc2 and cyclin B1 components of the active enzyme it is possible that Aβ modulates the activity of the kinase.

biotinylated Aβ 1-42 = biotinylated Aβ 1-42 (Homo sapiens, UniProt P05067); experiment: Binding of biotinylated Aβ 1-42 to CAβBP or EAβBP coated plates (ELISA, Scatchard); conditions: biotinylated peptide 200 pM
Sequence of biotinylated Aβ 1-42 (P05067 672-713 limits assumed): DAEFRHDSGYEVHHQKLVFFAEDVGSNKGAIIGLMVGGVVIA
Protocol: After washing to remove unbound material, an alkaline phosphatase polymer-streptavidin conjugate (Sigma, Dorset, UK) was added and incubated at 37° C. for 2 hours. After washing to remove unbound material, p-nitrophenylphosphate substrate was added and absorbance at 405 nm determined.

biotinylated Aβ 25-35 = biotinylated Aβ 25-35 (Homo sapiens, UniProt P05067); experiment: Binding of biotinylated Aβ 25-35 to CAβBP or EAβBP coated plates (ELISA); conditions: biotinylated peptide 200 pM
Protocol: Biotinylated Aβ1-42, Aβ12-28 and Aβ 25-35 (from SEQ ID NO. 2) were prepared using a LinKit-Biolink kit (ISL, Paignton, UK). ELISA plates were coated with CAβBP (catalase residues 400409) or EAβBD (ERAB residues 99-108) (1 μg ml^−1) in carbonate buffer and unoccupied sites blocked with 5% (w/v) dried milk. Biotinylated peptides (200 pM) were incubated alone, with control peptides or with unlabelled Aβ peptides in PBS (containing 0.1% BSA and 0.05% Tween-20) at 37° C. for 4 hours. After washing to remove unbound material, an alkaline phosphatase polymer-streptavidin conjugate (Sigma, Dorset, UK) was added and incubated at 37° C. for 2 hours. After washing to remove unbound material, p-nitrophenylphosphate substrate was added and absorbance at 405 nm determined. Affinity constants were determined by incubating catalase or CAβBP coated plates with biotinylated peptides (200 pM) plus Aβ peptides over a range of concentrations (0-100 nM) and detection of bound peptides was carried out by ELISA.

[5] = biological target: T3, catalase EC 1.11.1.6 from human erythrocytes (Homo sapiens, UniProt P04040); experiment: Catalase enzyme activity, inhibition by Aβ peptides; assay type: biochemical; conditions: test peptides 2 μM
T3 construct: catalase EC 1.11.1.6 from human erythrocytes (Sigma, Dorset, UK) was used; purchased Sigma, Dorset, UK; host or cells: human erythrocytes
T3 sequence (P04040 2-527 limits assumed): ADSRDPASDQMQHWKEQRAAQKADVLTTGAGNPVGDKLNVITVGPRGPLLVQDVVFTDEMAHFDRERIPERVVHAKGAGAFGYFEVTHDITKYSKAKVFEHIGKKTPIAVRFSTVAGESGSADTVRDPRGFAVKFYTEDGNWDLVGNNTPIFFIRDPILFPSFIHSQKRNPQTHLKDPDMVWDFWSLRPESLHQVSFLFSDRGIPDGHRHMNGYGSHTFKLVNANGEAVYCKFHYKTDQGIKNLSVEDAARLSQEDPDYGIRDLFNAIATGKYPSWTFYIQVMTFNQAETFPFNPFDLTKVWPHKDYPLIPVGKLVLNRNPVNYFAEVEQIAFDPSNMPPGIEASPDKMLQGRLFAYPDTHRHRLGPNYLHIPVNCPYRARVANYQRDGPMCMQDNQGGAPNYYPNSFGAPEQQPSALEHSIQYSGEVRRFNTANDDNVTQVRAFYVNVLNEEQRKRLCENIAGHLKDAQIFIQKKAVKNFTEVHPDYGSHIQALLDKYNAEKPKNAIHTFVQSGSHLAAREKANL
Protocol: For catalase activity catalase EC 1.11.1.6 from human erythrocytes (Sigma, Dorset, UK) was used for all incubation experiments. Activity of Catalase (5kU I^−1) incubated with test peptides (2 μM) was determined after incubation in 60 mM sodium-potassium phosphate buffer at 37° C. in a total volume of 100 μl. After incubation catalase activity was determined by mixing 50 μl sample with 50 μl substrate (6.5 μmol H2O2 in phosphate buffer) for 60 secs, adding 100 μl of 32.4 mM ammonium molybdate and measurement of absorbance change at 405 nm. Catalase activity was calculated from a standard curve (0-10OkU I^−1) using purified human catalase of known activity (Milton, Biochem. J. 344: 293-296 (1999)).

- inhibition of phosphorylation of Aβ [1]: inhibited
- inhibition of the binding of Aβ to cdc2 (recombinant human cdc2; biotinylated Aβ 1-40 (FIG. 5)): inhibited
Molecule: Aβ 17-28: Aβ fragment, residues 17-28 (LVFFAEDVGSNK)

- phosphorylation by cdc2 (incorporation of 32P from γ32P-ATP) [1]: phosphorylated
- binding to human cdc2 (recombinant human cdc2): binds to
Molecule: Aβ 1-43: Amyloid-β 1-43 region, SEQ ID NO. 2

Molecule: CC(C)C[C@H](NC(=O)[C@H](CC(C)C)NC(=O)[C@H](CCCNC(=N)N)NC(=O)[C@H](CCCCN)NC(=O)[C@H](CCCCN)NC(=O)[C@H](Cc1c[nH]cn1)NC(=O)[C@H](CC(N)=O)NC(=O)[C@H](Cc1ccccc1)NC(=O)[C@@H](NC(=O)[C@@H](N)C(C)C)C(C)C)C(=O)O [AβAS(F) 14-23] (H-VVFNHKKRLL-OH)
- block of the cytotoxicity of Aβ 1-42 [2]: able to block
- block of the cytotoxicity of Aβ fragments containing residues 17-35 [2]: able to block

Molecule: Aβ 17-35 S26A: Aβ 17-35 in which the serine residue for phosphorylation has been mutated to an alanine residue (LVFFAEDVGANKGAIIGLM; Amyloid-beta protein 42; UniProt P05067 688-706, looked up, variant S26A)
- effect on MTT utilisation (Human NT-2 neurons [3]): no effect
- levels of immunoreactive Aβ (ir-Aβ) in exposed cells (Human NT-2 neurons [4]): increased levels
- ir-pSAβ in extracts of exposed cells (Human NT-2 neurons [4]): no difference to control cells

Molecule: Aβ 31-35: shortest cytotoxic form of Aβ (IIGLM)
- effect on phosphorylation of the H1 peptide by cdc2/cyclin B1 (cdc2/cyclin B1): increased

Molecule: PKTPKKAKKL (listed as Homo sapiens) [H1 peptide]
- Km ([1]; substrate of cdc2/cyclin B1, read-out: Michaelis constant (KM) for the phosphorylation): 2.7 µM

Molecule: Aβ 17-35: Aβ fragment 17-35 containing serine 26, ERAB binding and cytotoxic domains (LVFFAEDVGSNKGAIIGLM)
- effect on phosphorylation of the H1 peptide by cdc2/cyclin B1 (cdc2/cyclin B1): increased
- effect on MTT utilisation (Human NT-2 neurons [3]): dose dependent reduction
- levels of immunoreactive Aβ (ir-Aβ) in exposed cells (Human NT-2 neurons [4]): increased levels
- ir-pSAβ in extracts of exposed cells (Human NT-2 neurons [4]): increased amounts

Molecule: Aβ 17-35 pS26: Aβ 17-35 peptide with a phosphorylated serine residue (LVFFAEDVG[pS]NKGAIIGLM; UniProt P05067 688-706, looked up, fragment)
- potency in MTT reduction compared with the non-phosphorylated peptide (Human NT-2 neurons [3]): significantly more potent
- effect on MTT utilisation (Human NT-2 neurons [3]): dose dependent reduction
- levels of immunoreactive Aβ (ir-Aβ) in exposed cells (Human NT-2 neurons [4]): increased levels
- ir-pSAβ in extracts of exposed cells (Human NT-2 neurons [4]): no difference to control cells

Molecule: C[C@H](NC(=O)CN)C(=O)N1CCC[C@H]1C(=O)N[C@@H](CC(N)=O)C(=O)N[C@@H](Cc1ccc(O)cc1)C(=O)N[C@@H](Cc1ccc(O)cc1)C(=O)N1CCC[C@H]1C(=O)N[C@@H](CC(N)=O)C(=O)N[C@@H](CO)C(=O)N[C@@H](Cc1ccccc1)C(=O)O [CAβBP]
- binding of biotinylated Aβ 1-42 (biotinylated Aβ 1-42): specifically bound
- binding of biotinylated Aβ 25-35 (biotinylated Aβ 25-35): specifically bound
- block of the inhibition of catalase enzyme activity by Aβ 1-42 [5]: able to block
- block of the inhibition of catalase enzyme activity by Aβ fragments containing residues 31-35 [5]: able to block
- block of the cytotoxicity of Aβ 1-42 [2]: able to block
- block of the cytotoxicity of Aβ fragments containing residues 31-35 [2]: able to block

- phosphorylation by cdc2 (incorporation of 32P from γ32P-ATP) [1]: incorporated
- binding to human cdc2 (recombinant human cdc2): bound
Molecule: Aβ 1-42: major form of Amyloid-β protein, residues 1-42

- inhibition of phosphorylation of Aβ [1]: inhibited
Molecule: CDKP1: synthetic peptide corresponding to cdc2 residues 119-133 (CHSRRVLHRDLKPQN)

Molecule: CC(C)C[C@H](N)C(=O)N[C@@H](Cc1ccccc1)C(=O)N1CCC[C@H]1C(=O)N[C@@H](CCCNC(=N)N)C(=O)N[C@@H](Cc1ccc(O)cc1)C(=O)N[C@@H](Cc1ccc(O)cc1)C(=O)N1CCC[C@H]1C(=O)N[C@@H](CCC(=O)O)C(=O)N[C@@H](Cc1ccc(O)cc1)C(=O)N[C@@H](Cc1c[nH]cn1)C(=O)O [AβAS(F) 27-36] (H-LFPRYYPEYH-OH)
- block of the cytotoxicity of Aβ 1-42 [2]: able to block
- block of the cytotoxicity of Aβ fragments containing residues 25-35 [2]: able to block
